Laboratory results published in patent US10633354B2, “Substituted tricyclic heterocyclic compounds” (BRISTOL-MYERS SQUIBB COMPANY, priority 2016, dated 2020).

Columns and labels:
circulating lymphocytes = test: Blood Lymphocyte Reduction (BLR) assay in rodent; type: in vivo; conditions: Lewis rats dosed orally; for BL (×10^3/mm^3): n=2; for Lymp. Red.: vs vehicle group
Procedure: (§1) Blood Lymphocyte Reduction (BLR) Assay in Rodent:
Lewis rats were dosed orally with vehicle alone (polyethylene glycol 300, “PEG300”) or with test compounds. Compounds were dosed as a solution or suspension in the vehicle, adjusted to reflect the free amount of test article in the event that salt forms are utilized. […] The results were measured as a reduction in the percentage of circulating lymphocytes as compared to the vehicle treated group at the time of measurement. The results represent the average results of all animals within each treatment group (n=2).

[1] = Parent and phosphate concentrations in the BLR assay; conditions: rat, in vivo, po, Lewis rats dosed orally
Procedure: as §1
Lewis rats were dosed orally with vehicle alone (polyethylene glycol 300, “PEG300”) or with test compounds. Compounds were dosed as a solution or suspension in the vehicle, adjusted to reflect the free amount of test article in the event that salt forms are utilized. Blood was drawn at 24 hr and blood lymphocyte counts were determined on an ADVIA 120 Hematology Analyzer (Siemens Healthcare Diagnostics). The results were measured as a reduction in the percentage of circulating lymphocytes as compared to the vehicle treated group at the time of measurement. The results represent the average results of all animals within each treatment group (n=2).

[2] = as above; conditions: rat, in vivo, po, Lewis rats dosed orally; remark: listed apart in the source

Row | Compound | BL (×10^3/mm^3) (circulating lymphocytes; 4 Hours) | Lymp. Red. (circulating lymphocytes; 4 Hours) [%] | BL (×10^3/mm^3) (circulating lymphocytes; 24 Hours) | Lymp. Red. (circulating lymphocytes; 24 Hours) [%] | concentration at 24 h [1] [nM] | concentration at 4 h [2] [nM]
1 | CCCCSc1nc2c(s1)-c1ccc([C@H]3CC[C@](N)(CO)C3)cc1CC2 [Example 10, ((1R,3S)-1-amino-3-(2-(butylthio)-4,5-dihydronaphtho[2,1-d]thiazol-7-yl)cyclopentyl)methanol] | 1.7 ×10^3/mm^3 | 82 | 4.1 ×10^3/mm^3 | 48 | 1 | 9
2 | CCCCCCCc1nc2c(s1)-c1ccc([C@H]3CC[C@](N)(CO)C3)cc1CC2 [Example 1, ((1R,3S)-1-amino-3-(2-heptyl-4,5-dihydronaphtho[2,1-d]thiazol-7-yl)cyclopentyl) methanol] | 5.7 ×10^3/mm^3 | 40 | 1.8 ×10^3/mm^3 | 77 | 111 | 66
3 | CCCc1nc2c(s1)-c1ccc([C@H]3CC[C@](N)(CO)C3)cc1CC2 [Example 2, ((1R,3S)-1-amino-3-(2-propyl-4,5-dihydronaphtho[2,1-d]thiazol-7-yl)cyclopentyl) methanol] | 4.9 ×10^3/mm^3 | 41 | 8.2 ×10^3/mm^3 | 0 | < 19 | 108
4 | CCCCOCCOc1nc2c(s1)-c1ccc([C@H]3CC[C@](N)(CO)C3)cc1CC2 [Example 7, ((1R,3S)-1-amino-3-(2-(2-butoxyethoxy)-4,5-dihydronaphtho[2,1-d]thiazol-7-yl)cyclopentyl)methanol] | 1.9 ×10^3/mm^3 | 79 | 1.2 ×10^3/mm^3 | 87 | 142 | 1
5 | CCCCSc1nc2ccc3cc([C@H]4CC[C@](N)(CO)C4)ccc3c2s1 [Example 14, ((1R,3S)-1-amino-3-(2-(butylthio)naphtho[2,1-d]thiazol-7-yl)cyclopentyl)methanol] | 2.6 ×10^3/mm^3 | 69 | 2.1 ×10^3/mm^3 | 75 | 8 | 15
6 | CCCCc1nc2c(s1)-c1ccc([C@H]3CC[C@](N)(CO)C3)cc1CC2 [Example 6, ((1R,3S)-1-amino-3-(2-butyl-4,5-dihydronaphtho[2,1-d]thiazol-7-yl)cyclopentyl)methanol] | 3.4 ×10^3/mm^3 | 59 | 1.5 ×10^3/mm^3 | 82 | 66 | 109
7 | CCCCOc1nc2c(s1)-c1ccc([C@H]3CC[C@](N)(CO)C3)cc1CC2 [Example 8, ((1R,3S)-1-amino-3-(2-butoxy-4,5-dihydronaphtho[2,1-d]thiazol-7-yl)cyclopentyl)methanol] | 2.5 ×10^3/mm^3 | 74 | 2.4 ×10^3/mm^3 | 68 | 7 | 35
8 | CCCCOc1nc2ccc3cc([C@H]4CC[C@](N)(CO)C4)ccc3c2s1 [Example 16, ((1R,3S)-1-amino-3-(2-butoxynaphtho[2,1-d]thiazol-7-yl)cyclopentyl)methanol] | 2.9 ×10^3/mm^3 | 65 | 1.9 ×10^3/mm^3 | 77 | 21 | 28
9 | CCCCCCc1nc2c(s1)-c1ccc([C@H]3CC[C@](N)(CO)C3)cc1CC2 [Example 5, ((1R,3S)-1-amino-3-(2-hexyl-4,5-dihydronaphtho[2,1-d]thiazol-7-yl)cyclopentyl)methanol] | 2.8 ×10^3/mm^3 | 66 | 4.5 ×10^3/mm^3 | 48 | 9 | 77
10 | CCCCCOc1nc2c(s1)-c1ccc([C@H]3CC[C@](N)(CO)C3)cc1CC2 [Example 12, ((1R,3S)-1-amino-3-(2-(pentyloxy)-4,5-dihydronaphtho[2,1-d]thiazol-7-yl)cyclopentyl)methanol] | 2.8 ×10^3/mm^3 | 67 | 1.8 ×10^3/mm^3 | 80 | 29 | 81
11 | CCCCCOc1nc2ccc3cc([C@H]4CC[C@](N)(CO)C4)ccc3c2s1 [Example 15, ((1R,3S)-1-amino-3-(2-(pentyloxy)naphtho[2,1-d]thiazol-7-yl)cyclopentyl)methanol] | 1.7 ×10^3/mm^3 | 80 | 1.8 ×10^3/mm^3 | 80 | 17 | 31
12 | Cc1ccc(-c2nc3c(s2)-c2ccc([C@H]4CC[C@](N)(CO)C4)cc2CC3)cc1 [Example 19, ((1R,3S)-1-amino-3-(2-(p-tolyl)-4,5-dihydronaphtho[2,1-d]thiazol-7-yl)cyclopentyl)methanol] | 7.5 ×10^3/mm^3 | 9 | 8.2 ×10^3/mm^3 | 2 | 37 | 48
13 | COc1cccc(-c2nc3c(s2)-c2ccc([C@H]4CC[C@](N)(CO)C4)cc2CC3)c1 [Example 20, ((1R,3S)-1-amino-3-(2-(3-methoxyphenyl)-4,5-dihydronaphtho[2,1-d]thiazol-7-yl)cyclopentyl)methanol] | 5.7 ×10^3/mm^3 | 31 | 3.1 ×10^3/mm^3 | 63 | 68 | 97
14 | CCCCCCOc1nc2c(s1)-c1ccc([C@H]3CC[C@](N)(CO)C3)cc1CC2 [Example 9, ((1R,3S)-1-amino-3-(2-(hexyloxy)-4,5-dihydronaphtho[2,1-d]thiazol-7-yl)cyclopentyl) methanol] | 2.8 ×10^3/mm^3 | 66 | 1.4 ×10^3/mm^3 | 82 | 31 | 72
15 | CCCCCSc1nc2c(s1)-c1ccc([C@H]3CC[C@](N)(CO)C3)cc1CC2 [Example 11, ((1R,3S)-1-amino-3-(2-(pentylthio)-4,5-dihydronaphtho[2,1-d]thiazol-7-yl)cyclopentyl) methanol] | 2.3 ×10^3/mm^3 | 72 | 2.1 ×10^3/mm^3 | 76 | 16 | 87
16 | CCCCN(C)c1nc2c(s1)-c1ccc([C@H]3CC[C@](N)(CO)C3)cc1CC2 [Example 18, ((1R,3S)-1-amino-3-(2-(butyl(methyl)amino)-4,5-dihydronaphtho[2,1-d]thiazol-7-yl)cyclopentyl)methanol] | 5.9 ×10^3/mm^3 | 30 | 6.4 ×10^3/mm^3 | 27 | 18 | 113
17 | CCCCNc1nc2c(s1)-c1ccc([C@H]3CC[C@](N)(CO)C3)cc1CC2 [Example 17, ((1R,3S)-1-amino-3-(2-(butylamino)-4,5-dihydronaphtho[2,1-d]thiazol-7-yl)cyclopentyl)methanol] | 5.8 ×10^3/mm^3 | 37 | 8.4 ×10^3/mm^3 | 0 | 0 | 33
18 | CCCCCCOc1nc2ccc3cc([C@H]4CC[C@](N)(CO)C4)ccc3c2s1 [Example 13, ((1R,3S)-1-amino-3-(2-(hexyloxy)naphtho[2,1-d]thiazol-7-yl)cyclopentyl)methanol] | 2.5 ×10^3/mm^3 | 73 | 1.4 ×10^3/mm^3 | 83 | 78 | 65
